We go through 25 compounds from patent US4983740A, “Process for 1,4-dihydropyridine compounds” (Adir et Compagnie, priority 1986, dated 1991).

Each structure is given as a SMILES string. Structures can show the parent of a compound that is named as a salt.

The subject of the experiment is rat aorta. The experiment can be described thus: In vitro activity in rat aorta stimulated by potassium ions. The class given is cell-based, rat (male Wistar). The conditions noted are these: 1 h; rat aorta rings, KCl 80 mM stimulation, cumulative doses at 60 minutes intervals. On the procedure: Determination of the Vitro Activity in Rat Aorta Stimulated by Potassium Ions
This trial was carried out using isolated organs removed from male Wistar rats weighing 300 to 400 g, kept under a water diet 18 hours before sacrificing.
After quickly sacrificing the animal, the aorta (at the level of the arch of the aorta) is removed and dissected into 2 mm-long rings; the endothelium is removed mechanically. After an equilibration period of 1 hour in a physiological solution consisting of (mM): NaCl 112, KCl 5, KH2 PO4 1, MgSO4 1.2, CaCl2 2.5, NaHCO3 25 and glucose 11.5, the preparations are stimulated with a potassium-rich solution. The latter consists of (mM):NaCl 37, KCl 80, KH2 PO4 1, MgSO4 1.2, CaCl2 2.5, NaHCO3 25 and glucose 11.5. This solution has a pH of 7.4 at 37° C.
After 15 minutes of stabilization, the compounds to be tested are then added (sample volume 0.2 ml) at cumulative doses at 60 minutes intervals. From the relaxation values obtained, it is possible to construct a doseresponse curve, leading to the calculation of an IC50 value (expressed in M).
As a reminder, the IC50 is the concentration needed to halve the response being measured. Low readings indicate inhibition by little substance, high ones a need for much substance. Turning to `CCOC(=O)C1=C(COCCOCCN)NC(C)=C(C(=O)OC)C1c1ccc(OC)c(OC)c1OC` (racemic) [EXAMPLE 3, (4R,S)-2-{[2-(2-Aminoethoxy)ethoxy]methyl}-3-ethoxycarbonyl-5-methoxycarbonyl-6-methyl-4-(2,3,4-trimethoxyphenyl)-1,4-dihydropyridine fumarate], the IC50 worked out at 1 µM.

For the compound `COC(=O)C1=C(C)NC(COCCOCCN)=C(C(=O)OCC(C2CC2)C2CC2)C1c1ccccc1Cl` (racemic) [EXAMPLE 4, (4R,S)-2-{[2-(2-Aminoethoxy)ethoxy]methyl}-4-(2-chlorophenyl)-3-(2,2-dicyclopropylethoxycarbonyl)-5-methoxycarbonyl-6-methyl-1,4-dihydropyridine fumarate], the half-inhibitory concentration (IC50) worked out at 0.3 µM.

`CCOC(=O)C1=C(COCCOCCN)NC(C)=C(C(=O)OCC(C2CC2)C2CC2)C1c1ccccc1Cl` (racemic) [EXAMPLE 9, (4R,S)-2-{[2-(2-Aminoethoxy)ethoxy]methyl}-4-(2-chlorophenyl)-5-(2,2-dicyclopropylethoxycarbonyl)-3-ethoxycarbonyl-6-methyl-1,4-dihydropyridine fumarate] showed a concentration for half-maximal inhibition (IC50) of 3 µM. Compared with the last compound, the IC50 is about 10-fold higher. Compound `CCOC(=O)C1=C(COCCOCCN)NC(COC)=C(C(=O)OC)C1c1cccc(Cl)c1Cl` (racemic) [EXAMPLE 10, (4R,S)-2-{[2-(2-Aminoethoxy)ethoxy]methyl}-4-(2,3-dichlorophenyl)-3-ethoxycarbonyl-5-methoxycarbonyl-6-methoxymethyl-1,4-dihydropyridine] returned an IC50 of 0.09 µM. The value for `CCOC(=O)C1=C(COCCOCC[N+](C)(C)Cc2ccccc2)NC(C)=C(C(=O)OC)C1c1cccc(Cl)c1Cl` (racemic) [EXAMPLE 11, N-Benzyl-7-[(4R,S)-3-ethoxycarbonyl-4-(2,3-dichlorophenyl)-5-methoxycarbonyl-6-methyl-2-(1,4-dihydropyridyl)]-N,N-dimethyl-3,6-dioxaheptanammonium iodide] was 0.25 µM. Compound `COC(=O)C1=C(C)NC(CCCCCCCN)=C(C(=O)OCC(C2CC2)C2CC2)C1c1ccccc1Cl` (racemic) [EXAMPLE 13, (4R,S)-2-(7-Aminoheptyl)-4-(2-chlorophenyl)-3-(2,2-dicyclopropylethoxycarbonyl)-5-methoxycarbonyl-6-methyl-1,4-dihydropyridine fumerate] returned an IC50 of 0.3 µM. `CCOC(=O)C1=C(CCCCCN)NC(C)=C(C(=O)OC)C1c1ccccc1Cl` (racemic) [EXAMPLE 14, (4R,S)-2-(5-Aminopentyl)-4-(2-chlorphenyl)-3-ethoxycarbonyl-5-methoxycarbonyl-6-methyl-1,4-dihydropyridine citrate]: the IC50 was 0.04 µM. This IC50 lies about 7.5-fold lower than the previous one.

For `CCOC(=O)C1=C(C)NC(COCCOCCN)=C(C(=O)OCC)C1c1c(F)c(F)c(F)c(F)c1F` (racemic) [EXAMPLE 15, (4R,S)-2-{[2-(2-Aminoethoxy)ethoxy]methyl}-3,5-diethoxycarbonyl-6-methyl-4-pentafluorophenyl-1,4-dihydropyridine], inhibition was half-maximal at 0.12 µM (IC50). The value for `CCCNCCOCCOCC1=C(C(=O)OCC)C(c2c(F)c(F)c(F)c(F)c2F)C(C(=O)OCC)=C(C)N1` (racemic) [EXAMPLE 16, (4R,S)-3,5-Diethoxycarbonyl-6-methyl-4-pentafluorophenyl-2-[{2-[2-(N-propylamino)ethoxy]ethoxy}methyl]-1,4-dihydropyridine oxalate] was 0.061 µM; that for `CCOC(=O)C1=C(COCCOCCN)NC(C)=C(C(=O)OC)C1c1ccccc1C(F)(F)F` (racemic) [EXAMPLE 17, (4R,S)-2-{[2-(2-Aminoethoxy)ethoxy]methyl}-3-ethoxycarbonyl-5-methoxycarbonyl-6-methyl-4-(2-trifluoromethylphenyl)-1,4-dihydropyridine fumarate] was 0.0076 µM; that for `CCOC(=O)C1=C(COCCOCCN)NC(C)=C(C(=O)OC)C1c1cccc(Cl)c1` (racemic) [EXAMPLE 18, (4R,S)-2-{[2-(2-Aminoethoxy)ethoxy]methyl}-4-(3-chlorophenyl)-3-ethoxycarbonyl-5-methoxycarbonyl-6-methyl-1,4-dihydropyridine tartrate] was 0.0047 µM. Under `COC(=O)C1=C(C)NC(COCCOCCN)=C(C(=O)OC)C1c1c(F)c(F)c(F)c(F)c1F` (racemic) [EXAMPLE 19, (4R,S)-2-{[2-(2-Aminoethoxy)ethoxy]methyl}-3,5-dimethoxycarbonyl-6-methyl-4-pentafluorophenyldihydropyridine tartrate] stands 0.0049 µM; under `CCOC(=O)C1=C(C)NC(COCCOCCN)=C(C(=O)OC)C1c1c(F)c(F)c(F)c(F)c1F` (racemic) [EXAMPLE 20, (4R,S)-2-{[2-(2-Aminoethoxy)ethoxy]methyl}-5-ethoxycarbonyl-3-methoxycarbonyl-6-methyl-4-pentafluorophenyldihydropyridine tartrate], 0.026 µM.

The compound `CCOC(=O)C1=C(COCCOCCNC(=O)C(F)(F)F)NC(C)=C(C(=O)OC)C1c1c(F)c(F)c(F)c(F)c1F` (racemic) [EXAMPLE 21, (4R,S)-2-[{2-[2-(N-Trifluoroacetylamino)ethoxy]-ethoxy}methyl]-3-ethoxycarbonyl-5-methoxycarbonyl-6-methyl-4-pentafluorophenyl-1,4-dihydropyridine] gave an IC50 of 0.068 µM.

In turn, `CCOC(=O)C1=C(COCCOCCN)NC(C)=C(C(=O)OC)C1c1cccc(SC)c1OC` (racemic) [EXAMPLE 22] displayed a half-maximal inhibitory concentration (IC50) of 0.02 µM. For `COC(=O)C1=C(C)NC(COCCOCCN)=C(C(=O)OCc2ccc([N+](=O)[O-])cc2)C1c1c(F)c(F)c(F)c(F)c1F` (racemic) [EXAMPLE 23, (4R,S)-2-{[2-(2-Aminoethoxy)ethoxy]methyl}-3-(4-nitrobenzyloxycarbonyl)-5-methoxy-6-methyl-4-pentafluorophenyl-1,4-dihydropyridine tartrate], 0.2 µM corresponded to half-maximal inhibition (IC50). Under `CCOC(=O)C1=C(COCCCOCCCN)NC(C)=C(C(=O)OC)C1c1c(F)c(F)c(F)c(F)c1F` (racemic) [EXAMPLE 24, (4R,S)-2-{[3-(3-Aminopropoxy)propoxy]methyl}-3-ethoxycarbonyl-5-methoxycarbonyl-4-pentafluorophenyl-1,4-dihydropyridine tartrate] stands 0.00082 µM; under `COC(=O)C1=C(C)NC(COCCOCCN)=C(C(=O)OC(C)C)C1c1cccc(Cl)c1Cl` (racemic) [EXAMPLE 25, (4R,S)-2-{[2-(2-Aminoethoxy)ethoxy]methyl}-4-(2,3-dichlorophenyl)-3-isopropoxycarbonyl-5-methoxycarbonyl-6-methyl-1,4-dihydropyridine fumarate], 0.013 µM.

With `COC(=O)C1=C(C)NC(COCCOCCN)=C(C(=O)OC(C)C)C1c1c(F)c(F)c(F)c(F)c1F` (racemic) [EXAMPLE 26, (4R,S)-2-{[2-(2-Aminoethoxy)ethoxy]methyl}-3-isopropoxycarbonyl-5-methoxycarbonyl-6-methyl-4-pentafluorophenyl-1,4-dihydropyridine tartrate], the 50% inhibitory concentration (IC50) turned out to be 0.31 µM. The value for `CCOC(=O)C1=C(COCCCOCCCN)NC(C)=C(C(=O)OC)C1c1cccc(Cl)c1Cl` (racemic) [EXAMPLE 27, (4R,S)-2-{[3-(3-Aminopropoxy)propoxy]methyl}-4-(2,3-dichlorophenyl)-3-ethoxycarbonyl-5-methoxycarbonyl-6-methyl-1,4-dihydropyridine fumarate] was 0.0044 µM; that for `COC(=O)C1=C(C)NC(COCCOCCN)=C(C(=O)OCC(C)C)C1c1cccc(Cl)c1Cl` (racemic) [EXAMPLE 28, (4R,S)-2-{[2-(2-Aminoethoxy)ethoxy]methyl}-4-(2,3-dichlorophenyl)-3-isobutyloxycarbonyl-5-methoxycarbonyl-6-methyl-1,4-dihydropyridine fumarate] was 0.0093 µM. The value for `CCOC(=O)C1=C(COCCCOCCCN)NC(C)=C(C(=O)OC)C1c1cccc(C(F)(F)F)c1SC` (racemic) [EXAMPLE 30, (4R,S)-2-{[3-(3-Aminopropoxy)propoxy]methyl}-3-ethoxycarbonyl-5-methoxycarbonyl-6-methyl-4-(2-methylthio-3-trifluoromethylphenyl)-1,4-dihydropyridine fumarate] was 0.025 µM.

For the compound `CCOC(=O)C1=C(COCCOCCN)NC(C)=C(C(=O)OC)C1c1cc(Cl)cc(Cl)c1Cl` (racemic) [EXAMPLE 31, (4R,S)-2-{[2-(2-Aminoethoxy)ethoxy]methyl}-3-ethoxycarbonyl-5-methoxycarbonyl-6-methyl-4-(2,3,5-trichlorophenyl)-1,4-dihydropyridine fumarate], half-maximal inhibition (IC50) required 0.17 µM. This IC50 lies about 6.8-fold higher than the previous one. Under `CCOC(=O)C1=C(COCCOCCN)NC(C)=C(C(=O)OC)C1c1c(Cl)ccc(Cl)c1Cl` (racemic) [EXAMPLE 32, (4R,S,)-2-{[2-(2-Aminoethoxy)ethoxy]methyl}-3-ethoxycarbonyl-5-methoxycarbonyl-6-methyl-4-(2,3,6-trichlorophenyl)-1,4-dihydropyridine fumarate] stands 0.032 µM. The value for `COC(=O)C1=C(C)NC(COCCOCCN)=C(C(=O)OCCCC(C2CC2)C2CC2)C1c1cccc(Cl)c1Cl` (racemic) [EXAMPLE 33, (4R,S)-2-{[2-(2-Aminoethoxy)ethoxy]methyl}-4-(2,3-dichlorophenyl)-3-(4,4-dicyclopropylbutyloxycarbonyl)-5-methoxycarbonyl-6-methyl-1,4-dihydropyridinefumarate] was 0.077 µM.
